# Reference: patent publication US20030065039A1, “Biologically active 1,3-bis-aromatic-prop-2-en-1-ones, 1,3-bis-aromatic-propan-1-ones, and 1,3-bis-aromatic-prop-2-yn-1-ones” (Statens Serum Institute, priority 1997, published 2003)
# Tests used:
# [1] = target: T1, Helicobacter pylori fumarate reductase (Helicobacter pylori, UniProt O06913); type: biochemical; settings: at concentration of 0.2 mM
# T1 construct: Membrane associated proteins were solubilized from the pellet in 150 mM KCl, pH 7.0; endogenous in cells; host or cells: Helicobacter pylori 007 strain; KCl-solubilised fraction (or sonicate supernatant)
# T1 sequence (O06913 1-714): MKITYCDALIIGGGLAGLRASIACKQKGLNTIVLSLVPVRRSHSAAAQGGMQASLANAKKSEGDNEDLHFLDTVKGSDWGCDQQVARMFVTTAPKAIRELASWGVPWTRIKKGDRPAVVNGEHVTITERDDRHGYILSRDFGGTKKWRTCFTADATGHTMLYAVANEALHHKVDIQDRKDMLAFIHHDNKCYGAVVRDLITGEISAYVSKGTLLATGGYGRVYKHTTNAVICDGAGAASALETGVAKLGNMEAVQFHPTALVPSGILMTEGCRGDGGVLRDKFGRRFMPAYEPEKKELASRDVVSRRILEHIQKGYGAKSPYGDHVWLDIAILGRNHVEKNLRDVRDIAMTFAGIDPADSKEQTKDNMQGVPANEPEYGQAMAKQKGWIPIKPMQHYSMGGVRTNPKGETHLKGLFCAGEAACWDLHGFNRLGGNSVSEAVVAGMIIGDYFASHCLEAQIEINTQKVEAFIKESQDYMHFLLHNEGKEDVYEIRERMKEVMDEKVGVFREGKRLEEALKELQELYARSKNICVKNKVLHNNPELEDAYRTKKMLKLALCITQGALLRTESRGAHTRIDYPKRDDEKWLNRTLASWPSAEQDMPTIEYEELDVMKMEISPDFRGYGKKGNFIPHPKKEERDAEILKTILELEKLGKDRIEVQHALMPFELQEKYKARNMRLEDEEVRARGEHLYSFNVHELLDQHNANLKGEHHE
# T1 sequence (O06914 1-245 partner): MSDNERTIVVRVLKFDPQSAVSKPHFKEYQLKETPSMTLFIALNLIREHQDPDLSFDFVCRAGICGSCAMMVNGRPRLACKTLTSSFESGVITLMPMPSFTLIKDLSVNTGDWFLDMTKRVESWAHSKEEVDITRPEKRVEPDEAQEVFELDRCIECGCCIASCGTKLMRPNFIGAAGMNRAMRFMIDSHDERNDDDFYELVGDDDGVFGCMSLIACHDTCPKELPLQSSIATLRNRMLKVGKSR
# T1 sequence (O06912 1-255 partner): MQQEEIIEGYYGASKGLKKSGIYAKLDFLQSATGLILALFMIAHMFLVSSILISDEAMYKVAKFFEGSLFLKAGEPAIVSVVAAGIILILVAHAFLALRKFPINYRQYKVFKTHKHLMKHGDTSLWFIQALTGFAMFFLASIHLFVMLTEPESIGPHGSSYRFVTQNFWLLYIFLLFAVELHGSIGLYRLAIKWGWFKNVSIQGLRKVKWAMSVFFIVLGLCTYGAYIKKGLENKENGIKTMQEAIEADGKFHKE
# Procedure: 1) Extraction of soluble FRD: Bacteria were harvested by centrifugation at 18,000 g for 10 min at 4° C., and were washed 2 times in an isotonic phosphate saline buffer (50 mM sodium phosphate, pH 7.2, 90 mM NaCl, 5 mM Kcl). Bacteria were lysed in 5 mM Tris-HCl, pH 7.4, for 15 minutes, and centrifuged 18,000 g for 10 minutes. Membrane associated proteins were solubilized from the pellet in 150 mM KCl, pH 7.0, in ice bath for 60 min, and then the supernatant was collected after centrifugation (18,000 g for 10 minutes) for the measurement of FRD activity.
# 2) Extraction of FRD by sonication: Bacteria were harvested by centrifugation at 18,000 g for 10 min at 4° C., were sonicated, and then the supernatant was collected after centrifugation (18,000 g for 10 minutes) for the measurement of FRD activity.
# NADH-FRD activity was determined as the rate of NADH-oxidation upon addition of 1 mM fumarate in the KCl-solubilized fraction or sonicated fraction. The reaction was monitored spectrophotometrically at 340 nm (∈=6.2 mM^−1 cm^−1) using 100 μM NADH and usually 3 mg protein in both reference and sample cuvettes. The measurement was carried out in a Shimadzu UV-190 double-beam spectrophotometer. Protein concentrations were determined using a Bio-Rad protein assay (Bio-Rad Laboratories, 200 Alfred Nobel Dr. Hercules, Calif. 94547, USA).
# KCl solubilised fraction of bacteria was incubated with different concentrations of various oxygenated chalcones at 28° C. and the remaining FRD activity was measured. The IC50 values were determined as the concentration at which 50% of the activity was inhibited.
# [2] = test system: cytomegalovirus AD-169 strain; assay: Activity against cytomegalovirus in HEL cells (plaque formation); type: cell-based; settings: virus plaque formation reduced by 50%, 100 PFU, values given as fractions
# Procedure: (§1) IC50 values are determined by the virus plaque formation and/or the virus cytopathic assay using standard methods well-known in the art.
# [3] = test system: cytomegalovirus Davis strain; assay: as above; type: cell-based; settings: virus plaque formation reduced by 50%, 100 PFU, values given as fractions
# Procedure: as §1
# [4] = test system: human embryonic lung (HEL) cells; assay: Cytotoxicity in human embryonic lung (HEL) cells; type: cell-based; settings: HEL cell growth reduced by 50%; values given as fractions
# Simliki forest virus = assay: Antiviral activity in Vero cell cultures; type: cell-based; settings: Vero cells; values given as fractions
# Procedure: as §1
# (§2) In the following is reported the results from a Vero cell culture infected with different viruses. The cell culture used as well as the methods applied are well known to a person skilled in the art.
# Coxsackie virus B4 = assay: Antiviral activity in Vero cell cultures; type: cell-based; settings: Vero cells; values given as fractions
# Procedure: as §1, §2
# Reovirus-1 = assay: Antiviral activity in Vero cell cultures; type: cell-based; settings: Vero cells; values given as fractions
# Procedure: as §1, §2
# Parainfluenza-3 Virus = assay: Antiviral activity in Vero cell cultures; type: cell-based; settings: Vero cells; values given as fractions
# Procedure: as §1, §2
# Sindbis virus = assay: Antiviral activity in Vero cell cultures; type: cell-based; settings: Vero cells; values given as fractions
# Procedure: as §1, §2
# Vero cell cultures = assay: Cytotoxicity in Vero cell cultures; type: cell-based; settings: Vero cells; values given as fractions, footnote a not given
# Text: as §2
# human lymphocytes = assay: Lymphocyte Proliferation Assay; type: cell-based; settings: Lymphocyte; PHA provoked proliferation of human lymphocytes; read-out: Lymphocytes IC50 ± SD
# Method in brief: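 Ficoll-isolated human blood mononuclear cells (0.63×10^5/ml) in RPMI 1640 with 5% FCS were cultured in triplicate with test compound and PHA or PPD for 3 or 7 days. Proliferation measured by ^3H-thymidine incorporation over the final 24 h; triplicate median recorded.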
# Leishmania promastigotes = Leishmania promastigotes Assay; type: cell-based; settings: Leishmania; promastigotes, 3H-thymidine uptake; read-out: Leishmania IC50 ± SD
# Method in brief: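 L. major (WHO Iran vaccine strain) and L. donovani MHOM/KE/85/NLB 274 promastigotes (3×10^6/ml, day 3 and 6 cultures) exposed to compound 2 h at 26 °C, then 3H-thymidine 18 h; incorporation counted by scintillation. Microscopic counts and flagellar motility also assessed.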
# Plasmodium falciparum = Plasmodium falciparum Assay; type: cell-based; settings: Plasmodium falciparum; 3-H-hypoxanthine incorporation, 48 hours; read-out: Plasmodium IC50 ± SD
# Method in brief: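 Parasitized erythrocytes (~1% parasitemia, 5×10^8/ml) cultured 48 h in RPMI with test compound, with 3H-hypoxanthine added for the last 24 h. Growth inhibition read as 3H-hypoxanthine incorporation into parasite DNA by liquid scintillation; uninfected and untreated infected cultures run in parallel.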
# [5] = Preliminary 14 days oral toxicity study in rats; type: in vivo; settings: highest dose level 1000 mg/kg/day
# Procedure: A preliminary 14 days oral toxicity study in rats was carried out with 6 compounds. Observations included clinical signs, body weights, food intake, haematology, clinical chemistry and macroscopic pathology.
SMILES,activity of NADH-fumarate reductase [1],"Antiviral activity IC50, AD-169 strain, Assay 1 [2]","Antiviral activity IC50, Davis strain, Assay 1 [3]",Cytotoxicity CC50 [4],"Minimum inhibitory concentration, Simliki forest virus (Simliki forest virus)","Minimum inhibitory concentration, Coxsackie virus B4 (Coxsackie virus B4)","Minimum inhibitory concentration, Reovirus-1 (Reovirus-1)","Minimum inhibitory concentration, Parainfluenza-3 Virus (Parainfluenza-3 Virus)","Minimum inhibitory concentration, Sindbis virus (Sindbis virus)",Minimum Cytotoxic Concentration (Vero cell cultures),IC50 (human lymphocytes) [µM],IC50 (Leishmania promastigotes) [µM],IC50 (Plasmodium falciparum) [µM],toxic effects [5]
"O=C(CC(=O)C(F)(F)F)c1cccs1 [2-thenoyltrifluoroacetone, reference compound]",almost completely inhibited,–,–,–,–,–,–,–,–,–,–,–,–,–
"COc1ccc(/C=C/C(=O)c2ccc(O)cc2)cc1OC [3,4m4′hc]",–,1/45,1/55,<1/30,<1/100,<1/100,<1/100,<1/100,<1/100,<1/100,–,–,–,–
"COc1ccc(/C=C/C(=O)c2ccc(O)cc2)c(OC)c1 [24m4′hc, 2,4-dimethoxy-4′hydroxychalcone]",–,–,–,–,–,–,–,–,–,–,71 ± 5,48 ± 3,11,No toxic effects
"O=C(/C=C/c1ccccc1)c1ccc(O)cc1 [4′-OH, 4′-hydroxychalcone]",–,–,–,–,–,–,–,–,–,–,28 ± 1,16 ± 1,21,inconclusive effect
"C=CCOc1ccc(C(=O)/C=C/c2cc(OC)ccc2OC)cc1 [2,5m4′ac]",–,1/35,1/55,<1/30,<1/100,<1/100,<1/100,<1/100,<1/100,<1/100,–,–,–,–
"COc1ccc(/C=C/C(=O)c2ccccc2O)c(OC)c1 [2,4m2′hc]",–,<1/60,<1/60,<1/60,<1/100,<1/100,<1/100,<1/100,<1/100,<1/100,–,–,–,–
"C=CCOc1ccc(C(=O)/C=C/c2ccc(OC)cc2OC)cc1 [24m4′ac, 2,4-dimethoxy-4′allyloxychalcone]",–,–,–,–,–,–,–,–,–,–,–,–,–,No toxic effects
"C=CCOc1ccc(C(=O)/C=C/c2cc(OC)c(OC)cc2OC)cc1 [2,4,5m4′ac]",–,1/60,<1/30,<1/30,1/600,1/600,<1/100,1/2000,1/2000,<1/100,–,–,–,–
"COc1cccc(OC)c1/C=C/C(=O)c1ccc(O)cc1 [2,6m4′hc]",–,1/150,1/300,1/80,1/600,1/600,<1/100,1/600,1/2000,<1/100,–,–,–,–
"C=CCOc1ccc(C(=O)/C=C/c2cccc(OC)c2OC)cc1 [2,3m4′ac]",–,<1/30,<1/30,<1/30,<1/100,<1/100,<1/100,<1/100,<1/100,<1/100,–,–,–,–
"COc1ccc(/C=C/C(=O)c2ccccc2)c(OC)c1 [2,4mc]",–,<1/30,1/35,<1/30,<1/100,<1/100,<1/100,<1/100,<1/100,<1/100,–,–,–,–
"C=CCOc1ccc(C(=O)/C=C/c2cc(OC)c(OC)c(OC)c2)cc1 [3,4,5m4′ac]",–,1/150,1/85,<1/60,1/600,1/2000,<1/100,1/2000,1/2000,<1/100,–,–,–,–
"C=CCOc1ccc(C(=O)/C=C/c2c(OC)cc(OC)cc2OC)cc1 [2,4,6m4′ac]",–,1/200,1/120,<1/30,1/600,1/600,<1/100,1/2000,1/2000,<1/100,–,–,–,–
